The values below are quoted from earlier work in US6448244B1, “Water soluble azoles as broad-spectrum antifungals” (Janssen Pharmaceutica N.V., priority 1998, dated 2002).

For the data set the following is noted: Saksena et al., Bioorg. Med. Chem. Lett. (1995), 5(2), 127-132.

`CN(C)CCn1ncn(-c2ccc(N3CCN(c4ccc(OC[C@@H]5CO[C@@](Cn6cncn6)(c6ccc(F)cc6F)C5)cc4)CC3)cc2)c1=O` (relative stereo) [(3R-cis)-4-[4-[4-[4-[[5-(2,4-difluorophenyl)tetrahydro-5-(1H-1,2,4-triazol-1-ylmethyl)-3-furanyl]methoxy]phenyl]-1-piperazinyl]phenyl]-2-[2-(dimethylamino)ethyl]-2,4-dihydro-3H-1,2,4-triazol-3-one]: the “antifungal activity compared to SCH 51048” value is “profoundly less active”.
